Source: US20230114728A1 (Venatorx Pharmaceuticals, Inc., priority 2019, published 2023)
In brackets after ≈: the same amount, converted by molar mass.

Assays:
E. coli K12 PBP3 = target: T1, E. coli K12 PBP3 (Escherichia coli, UniProt P0AD68); test: biochemical; type: binding
T1 construct: made in house
Method in brief: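 A. baumannii PBP2 (2.5 μM) and PBP3 (0.2 μM) were run in 25 mM Tris pH 8.0 buffer with Tween 20; E. coli PBP3 (1.5 μM) and N. gonorrhoeae PBP2 ([…]) in 50 mM Hepes pH 8.0 buffer.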

P. aeruginosa ATCC 35151 = test: Broth microdilution MIC in CAMHB; type: cell-based; conditions: Pseudomonas aeruginosa, ATCC35151; MHB; hyper-permeable strain; read-out: Minimum Inhibitory Concentration, P. aeruginosa ATCC 35151
Method in brief: (§1)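 Lowest compound concentration with no visible growth after 16-20 h at 37 °C defines MIC. Plates of 2-fold serial dilutions in cation-adjusted Mueller Hinton broth received 2-8×10^5 CFU/mL of exponentially grown cells, per CLSI methods; panel spans reference, hyper-permeable and efflux-pump-deleted strains.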

P. aeruginosa ATCC 27853 = test: Broth microdilution MIC in CAMHB; type: cell-based; conditions: Pseudomonas aeruginosa, ATCC27853; MHB; read-out: Minimum Inhibitory Concentration, P. aeruginosa ATCC 27853
Method in brief: as §1

[1] = system: K. pneumoniae SI-117 producing VIM-1; test: Broth microdilution MIC in CAMHB; type: cell-based; conditions: Klebsiella pneumoniae, read-out: Minimum Inhibitory Concentration, K. pneumoniae SI-117
Method in brief: as §1

[2] = system: K. pneumoniae UMM producing SHV-5 and KPC-2; test: Broth microdilution MIC in CAMHB; type: cell-based; conditions: Klebsiella pneumoniae, read-out: Minimum Inhibitory Concentration, K. pneumoniae UMM
Method in brief: as §1

E. coli 901C = test: Broth microdilution MIC in CAMHB; type: cell-based; conditions: Escherichia coli; E. coli 901C (hyper-permeable); MHB; read-out: Minimum Inhibitory Concentration, E. coli 901C
Method in brief: as §1

[3] = system: K. pneumoniae 848844 producing SHV-11 and KPC-2; test: Broth microdilution MIC in CAMHB; type: cell-based; conditions: Klebsiella pneumoniae, read-out: Minimum Inhibitory Concentration, K. pneumoniae 848844
Method in brief: as §1

[4] = system: P. aeruginosa (ΔmexAB-oprM); test: Broth microdilution MIC in CAMHB; type: cell-based; conditions: Pseudomonas aeruginosa, read-out: Minimum Inhibitory Concentration, P. aeruginosa ΔmexAB-OprM
Method in brief: as §1

P. aeruginosa PBP3 = target: T2, P. aeruginosa PBP3 (Pseudomonas aeruginosa, UniProt G3XD46); test: Bocillin-FL fluorescence polarization competition binding assay, P. aeruginosa PBP3; conditions: fluorescence polarization competition binding assay using Bocillin-FL
T2 construct: made in house
Method in brief: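 Inhibitor competition with Bocillin-FL for P. aeruginosa PBP3 was followed by fluorescence polarization on a Cytation3 (BioTek) reader, using g-factor 0.96, 490 nm excitation and 520 nm emission. The enzyme was at 0.75 μM and the probe at 0.1 μM in Hepes/NaCl/glycerol buffer, 80 μl per well. FP was recorded immediately after probe addition for up to 60 minutes. Potency was expressed as EC50, the concentration that reduces bound probe by 50%.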

T1 sequence (P0AD68 1-577): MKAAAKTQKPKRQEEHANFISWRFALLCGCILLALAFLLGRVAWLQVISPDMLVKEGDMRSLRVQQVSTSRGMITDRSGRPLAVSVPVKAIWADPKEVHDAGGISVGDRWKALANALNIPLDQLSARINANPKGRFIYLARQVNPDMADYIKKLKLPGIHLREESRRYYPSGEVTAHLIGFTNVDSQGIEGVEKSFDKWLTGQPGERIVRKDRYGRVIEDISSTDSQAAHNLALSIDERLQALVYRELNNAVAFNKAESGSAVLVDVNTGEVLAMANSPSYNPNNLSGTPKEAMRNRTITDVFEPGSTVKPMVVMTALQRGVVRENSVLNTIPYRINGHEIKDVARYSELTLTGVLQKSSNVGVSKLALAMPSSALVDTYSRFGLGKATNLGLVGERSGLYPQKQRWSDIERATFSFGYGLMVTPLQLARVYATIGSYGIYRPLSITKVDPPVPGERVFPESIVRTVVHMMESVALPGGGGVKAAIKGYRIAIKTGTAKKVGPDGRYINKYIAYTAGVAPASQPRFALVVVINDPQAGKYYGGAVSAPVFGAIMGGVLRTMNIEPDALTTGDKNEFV
T2 sequence (G3XD46 whole entry): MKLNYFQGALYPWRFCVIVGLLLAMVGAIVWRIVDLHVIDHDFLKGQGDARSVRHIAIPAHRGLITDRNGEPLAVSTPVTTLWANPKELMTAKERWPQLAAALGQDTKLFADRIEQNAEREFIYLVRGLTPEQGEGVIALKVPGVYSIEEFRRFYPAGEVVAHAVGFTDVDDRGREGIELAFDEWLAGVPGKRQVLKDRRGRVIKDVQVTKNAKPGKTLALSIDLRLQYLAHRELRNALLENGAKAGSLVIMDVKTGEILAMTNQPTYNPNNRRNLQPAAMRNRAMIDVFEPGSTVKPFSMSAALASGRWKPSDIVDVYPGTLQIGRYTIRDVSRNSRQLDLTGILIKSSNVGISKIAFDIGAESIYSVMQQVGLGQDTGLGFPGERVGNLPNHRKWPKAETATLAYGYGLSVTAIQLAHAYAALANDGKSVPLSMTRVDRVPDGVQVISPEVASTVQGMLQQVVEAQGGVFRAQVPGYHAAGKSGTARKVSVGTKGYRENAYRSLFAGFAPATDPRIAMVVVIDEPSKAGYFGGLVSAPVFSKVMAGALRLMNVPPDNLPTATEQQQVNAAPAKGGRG

Row | SMILES | EC50 (E. coli K12 PBP3) | MIC (P. aeruginosa ATCC 35151) | MIC (P. aeruginosa ATCC 27853) | MIC [1] | MIC [2] | MIC (E. coli 901C) | MIC [3] | MIC [4] | P. aeruginosa PBP3 Potency (P. aeruginosa PBP3)
1 | N=C(N)NCCN1CCN(C(=O)NC(C(=O)N[C@H]2Cc3ccc(F)c(C(=O)O)c3OB2O)c2ccc(C(=O)O)c(F)c2)C(=O)C1=O (stereo partly drawn) [Example 78, (3R)-3-(2-(4-carboxy-3-fluorophenyl)-2-(4-(2-guanidinoethyl)-2,3-dioxopiperazine-1-carboxamido)acetamido)-7-fluoro-2-hydroxy-3,4-dihydro-2H-benzo[e][1,2]oxaborinine-8-carboxylic acid] | 30 to 500 µM | 0.5 to 1 µg/mL (≈ 0.775 to 1.55 µM) | 32 to 64 µg/mL (≈ 49.6 to 99.2 µM) | > 128 µg/mL | > 128 µg/mL | 2 to 4 µg/mL (≈ 3.1 to 6.2 µM) | > 128 µg/mL | 32 to 64 µg/mL (≈ 49.6 to 99.2 µM) | D (D represents a potency <10 μM)
2 | NCCN1CCN(C(=O)NC(C(=O)N[C@H]2Cc3cccc(C(=O)O)c3OB2O)c2cc(Cl)c(O)cc2F)C(=O)C1=O (stereo partly drawn) [Example 87, (3R)-3-(2-(4-(2-aminoethyl)-2,3-dioxopiperazine-1-carboxamido)-2-(5-chloro-2-fluoro-4-hydroxyphenyl)acetamido)-2-hydroxy-3,4-dihydro-2H-benzo[e][1,2]oxaborinine-8-carboxylic acid] | < 30 µM | 0.5 to 1 µg/mL (≈ 0.845 to 1.69 µM) | > 128 µg/mL | 32 to 64 µg/mL (≈ 54.1 to 108 µM) | 8 to 16 µg/mL (≈ 13.5 to 27 µM) | < 0.25 µg/mL | 32 to 64 µg/mL (≈ 54.1 to 108 µM) | 8 to 16 µg/mL (≈ 13.5 to 27 µM) | D (D represents a potency <10 μM)
3 | NCCN1CCN(C(=O)N[C@@H](C(=O)N[C@H]2Cc3cccc(C(=O)O)c3OB2O)c2cc(Cl)c(O)cc2Cl)C(=O)C1=O [Example 90, (R)-3-((R)-2-(4-(2-aminoethyl)-2,3-dioxopiperazine-1-carboxamido)-2-(2,5-dichloro-4-hydroxyphenyl)acetamido)-2-hydroxy-3,4-dihydro-2H-benzo[e][1,2]oxaborinine-8-carboxylic acid] | < 30 µM | 0.5 to 1 µg/mL (≈ 0.822 to 1.64 µM) | > 128 µg/mL | > 128 µg/mL | > 128 µg/mL | 0.5 to 1 µg/mL (≈ 0.822 to 1.64 µM) | > 128 µg/mL | > 128 µg/mL | D (D represents a potency <10 μM)
4 | NCCN1CCN(C(=O)NC(C(=O)N[C@H]2Cc3cccc(C(=O)O)c3OB2O)c2cc(F)c(O)cc2F)C(=O)C1=O (stereo partly drawn) [Example 93, (3R)-3-(2-(4-(2-aminoethyl)-2,3-dioxopiperazine-1-carboxamido)-2-(2,5-difluoro-4-hydroxyphenyl)acetamido)-2-hydroxy-3,4-dihydro-2H-benzo[e][1,2]oxaborinine-8-carboxylic acid] | < 30 µM | 0.5 to 1 µg/mL (≈ 0.869 to 1.74 µM) | > 128 µg/mL | 32 to 64 µg/mL (≈ 55.6 to 111 µM) | 8 to 16 µg/mL (≈ 13.9 to 27.8 µM) | 0.5 to 1 µg/mL (≈ 0.869 to 1.74 µM) | 32 to 64 µg/mL (≈ 55.6 to 111 µM) | 32 to 64 µg/mL (≈ 55.6 to 111 µM) | D (D represents a potency <10 μM)
5 | CCN1CCN(C(=O)NC(C(=O)N[C@H]2Cc3cccc(C(=O)O)c3OB2O)c2c(F)cc(O)cc2Cl)C(=O)C1=O (stereo partly drawn) [Example 95, (3R)-3-(2-(2-chloro-6-fluoro-4-hydroxyphenyl)-2-(4-ethyl-2,3-dioxopiperazine-1-carboxamido)acetamido)-2-hydroxy-3,4-dihydro-2H-benzo[e][1,2]oxaborinine-8-carboxylic acid] | < 30 µM | 2 to 4 µg/mL (≈ 3.47 to 6.94 µM) | > 128 µg/mL | 32 to 64 µg/mL (≈ 55.5 to 111 µM) | 8 to 16 µg/mL (≈ 13.9 to 27.7 µM) | < 0.25 µg/mL | 32 to 64 µg/mL (≈ 55.5 to 111 µM) | 32 to 64 µg/mL (≈ 55.5 to 111 µM) | D (D represents a potency <10 μM)
6 | CCN1CCN(C(=O)NC(C(=O)N[C@H]2Cc3cccc(C(=O)O)c3OB2O)c2cccc(NC(=O)c3cncnc3)c2)C(=O)C1=O (stereo partly drawn) [Example 96, (3R)-3-(2-(4-ethyl-2,3-dioxopiperazine-1-carboxamido)-2-(3-(pyrimidine-5-carboxamido)phenyl)acetamido)-2-hydroxy-3,4-dihydro-2H-benzo[e][1,2]oxaborinine-8-carboxylic acid] | 30 to 500 µM | 2 to 4 µg/mL (≈ 3.18 to 6.36 µM) | > 128 µg/mL | > 128 µg/mL | > 128 µg/mL | 0.5 to 1 µg/mL (≈ 0.794 to 1.59 µM) | > 128 µg/mL | 32 to 64 µg/mL (≈ 50.8 to 102 µM) | D (D represents a potency <10 μM)
7 | CCN1CCN(C(=O)NC(C(=O)N[C@H]2Cc3cccc(C(=O)O)c3OB2O)c2cccc(NC(=O)c3cccnc3)c2)C(=O)C1=O (stereo partly drawn) [Example 97, (3R)-3-(2-(4-ethyl-2,3-dioxopiperazine-1-carboxamido)-2-(3-(nicotinamido)phenyl)acetamido)-2-hydroxy-3,4-dihydro-2H-benzo[e][1,2]oxaborinine-8-carboxylic acid] | < 30 µM | 8 to 16 µg/mL (≈ 12.7 to 25.5 µM) | > 128 µg/mL | > 128 µg/mL | > 128 µg/mL | 0.5 to 1 µg/mL (≈ 0.796 to 1.59 µM) | > 128 µg/mL | 32 to 64 µg/mL (≈ 50.9 to 102 µM) | D (D represents a potency <10 μM)
8 | CCN1CCN(C(=O)NC(C(=O)N[C@H]2Cc3cccc(C(=O)O)c3OB2O)c2cccc(NS(N)(=O)=O)c2)C(=O)C1=O (stereo partly drawn) [Example 98, (3R)-3-(2-(4-ethyl-2,3-dioxopiperazine-1-carboxamido)-2-(3-(sulfamoylamino)phenyl)acetamido)-2-hydroxy-3,4-dihydro-2H-benzo[e][1,2]oxaborinine-8-carboxylic acid] | < 30 µM | 0.5 to 1 µg/mL (≈ 0.83 to 1.66 µM) | > 128 µg/mL | 32 to 64 µg/mL (≈ 53.1 to 106 µM) | 32 to 64 µg/mL (≈ 53.1 to 106 µM) | < 0.25 µg/mL | > 128 µg/mL | 8 to 16 µg/mL (≈ 13.3 to 26.6 µM) | D (D represents a potency <10 μM)
9 | CCN1CCN(C(=O)NC(C(=O)N[C@H]2Cc3cccc(C(=O)O)c3OB2O)c2cccc(S(N)(=O)=O)c2)C(=O)C1=O (stereo partly drawn) [Example 99, (3R)-3-(2-(4-ethyl-2,3-dioxopiperazine-1-carboxamido)-2-(3-sulfamoylphenyl)acetamido)-2-hydroxy-3,4-dihydro-2H-benzo[e][1,2]oxaborinine-8-carboxylic acid] | 30 to 500 µM | 2 to 4 µg/mL (≈ 3.4 to 6.81 µM) | > 128 µg/mL | 32 to 64 µg/mL (≈ 54.5 to 109 µM) | 32 to 64 µg/mL (≈ 54.5 to 109 µM) | < 0.25 µg/mL | 32 to 64 µg/mL (≈ 54.5 to 109 µM) | 8 to 16 µg/mL (≈ 13.6 to 27.2 µM) | D (D represents a potency <10 μM)
